{"source": "patent US20230089789A1", "about": "“INTESTINAL TRACT FUNCTION-IMPROVING AGENT” (CYCLOCHEM BIO CO., LTD., priority 2020, published 2023)", "key": {"[1]": {"system": "IgA", "assay": "IgA measurement in cecal contents (Rat IgA ELISA Kit)", "format": "in vivo, SD rats", "details": "5.5% in NF diet, 8 weeks; for IgA amount of cecal contents: compared to the NF group (p<0.01), FIG. 2", "description": "(§1) Fifteen 3-week-old SD rats (Japan SLC, Inc.) were acclimatized to the facility for one week and then divided into three groups of NF group (No Fiber diet), α-CD group (5.5% α-CD-containing NF diet) and LS group (5.5% LS-containing NF diet), each including five rats, and each rat was kept in one cage. In this test, the experiment was conducted in accordance with the Guidelines for Animal Experimentation of Kobe Women's University (Kobe, Japan), and approved by the animal ethics committee of the Graduate School of Science of Health and Nutrition at Kobe Women's University. The breeding environment was at 23±3° C. with a humidity of 60±10%, and cycles of 12-hour light/12-hour dark were provided. The rats were allowed to freely take diets and water and bread for eight weeks with experimental diets.\n(§2) The diets were prepared in such a manner that the α-CD or LS content of dry experimental diet became 5.5%. After mixing each powder well, 100 ml of water was added, and thus mixed material was used as an experimental diet.\n(§3) The rats of each group were fasted overnight eight weeks after starting breeding and then dissected under isoflurane anesthesia, and the cecum were taken out.\nOne hundred milligrams of cecal contents were measured and stirred after adding 1 ml of Elix water. After stirring, the resultant was centrifuged under the conditions of 10000 rpm for 30 min at 4° C., and the supernatant was used as a sample for IgA measurement. IgA amount of each sample was measured using Rat IgA ELISA Kit (Bethyl Laboratories, Inc.). Statistical analysis was conducted in the same manner as in 1) above."}, "[2]": {"system": "Caco-2 cells", "assay": "Cytotoxicity of food emulsifiers alone (LDH activity)", "format": "cell-based, human", "description": "(§4) Caco-2 cells were inoculated to a 96-well plate at 10000 cells/well and cultured for three days to confluency. The Caco-2 cells were washed with PBS and then treated with a food emulsifier SE (250 μg/mL HLB16P, 1000 μg/mL HLB11S or 500 μg/mL […]) or monolaurin (500 μg/mL) and α-CD for an hour, and the LDH activities of each were measured. The treatment amounts of α-CD were 1/10, 1, 1.5, 2, 5 and 10 times the weight ratios for each SE. For monolaurin, the treatment amounts of α-CD were 1/10, 1, 1.5, 2, 5, 10 and 15 times the weight ratios.\nFor comparison, the LDH activities of Caco-2 cells which were treated with the SE (HLB16P (0-1000 μg/mL), HLB11S or HLB16S (each 0-2000 μg/mL)) or monolaurin (0-2500 μg/mL) alone for an hour were also measured."}, "[3]": {"assay": "Feces amount measurement", "format": "in vivo, SD rats", "details": "5.5% in NF diet, feces of three days from the 45th day", "description": "as §1, §2\nA drainboard was placed on the floor of each breeding cage 44 days after starting the test, and the feces that fell under the drainboard were collected every day for three days in succession after the 45th day. The weight (wet weight) of the collected feces (for the three days) was measured, and then after drying under reduced pressure, the feces weight after drying (dry weight) was measured."}, "[4]": {"system": "Caco-2 cells", "assay": "Transepithelial electrical resistance decrease by food emulsifier", "format": "cell-based, human", "details": "HLB16P 62.5 μg/mL and α-CD 0-2000 μg/mL, 120 minutes, FIG. 7A", "description": "Caco-2 cells were seeded to a Transwell insert at 0.4×10^6 cells/mL using Corning (registered trademark) BioCoat (trademark) intestinal epithelial cells (Caco-2) differentiation environment kit (Corning International K.K.), cultured for one day in a normal medium and cultured for three days in a differentiation medium. The Caco-2 cells were washed with PBS, then treated with HLB16P (62.5 μg/mL) and α-CD (0-2000 μg/mL) and incubated for 120 minutes. During the incubation, the transepithelial electrical resistance values were measured every 20 minutes by Millicell ERS-2 resistance measurement system (Nihon Millipore K.K.).\nIn the same manner, the transepithelial electrical resistance values were measured after treatment with HLB16P (62.5 μg/mL) and α-CD (2000 μg/mL), each water-soluble dietary fiber or oligosaccharide (2000 μg/mL)."}, "[5]": {"assay": "Measurement of SCFAs amounts in cecal contents", "format": "in vivo, SD rats", "details": "5.5% in NF diet, 8 weeks", "description": "as §1, §2, §3\nA cut was made in the cecum taken out in 1 above, and the contents were squeezed out. The weights of the cecal contents were measured. Immediately after the weight measurement, the contents were frozen with liquid nitrogen and stored at −80° C.\n(§5) The cecal contents which were thawed for the microflora analysis were mixed and homogenized, and the analysis of the microflora by the T-RFLP method, measurement of the SCFAs amounts and the pH analysis were entrusted (TechnoSuruga Laboratory Co., Ltd.). The total SCFAs amounts were calculated by adding up the amounts of lactic acid, succinic acid, acetic acid, propionic acid and butyric acid."}, "[6]": {"system": "putrefactive products (indole, p-cresol and phenol)", "assay": "Putrefactive product measurement in cecal contents", "format": "in vivo, SD rats", "details": "5.5% in NF diet, 8 weeks", "description": "as §1, §2, §3\nAnalysis of the amounts of putrefactive products (indole, p-cresol and phenol) in cecal contents was entrusted (TechnoSuruga Laboratory Co., Ltd.)."}, "[7]": {"system": "cecal microflora (Lactobacillales)", "assay": "Analysis of cecal microflora by the T-RFLP method", "format": "in vivo, SD rats", "details": "5.5% in NF diet, 8 weeks; compared to the NF group or the LS group", "description": "as §1, with “diets. […]” for “diets.”\n(§6) A cut was made in the cecum taken out in 1 above, and the contents were squeezed out. The weights of the cecal contents were measured. […]\nas §5"}, "[8]": {"system": "Caco-2 cells", "assay": "Effect on cytotoxicity of food emulsifiers (LDH activity)", "format": "cell-based, human", "details": "one hour", "description": "as §4"}, "[9]": {"system": "mucin", "assay": "Mucin measurement in cecal contents (Fecal mucin Assay Kit)", "format": "in vivo, SD rats", "details": "5.5% in NF diet, 8 weeks, FIG. 1", "description": "as §1\nThe diets were prepared in such a manner that the α-CD or LS content of dry experimental diet became 5.5%. After mixing each powder well, 100 ml of water was added, and thus mixed material was used as an experimental diet. […]\nThe mucin amounts of the cecal contents were measured using Fecal mucin Assay Kit (Cosmo Bio Co., Ltd.), statistically analyzed by the Dunnett's test and the Student's t-test using Pharmaco Analyst I (Ver. 13.1.1; Three S Japan) and shown with the average values ±standard errors."}, "[10]": {"assay": "pH analysis of cecal contents", "format": "in vivo, SD rats", "details": "5.5% in NF diet, 8 weeks", "description": "as §1, with “diets. […]” for “diets.”\nas §6, §5"}, "[11]": {"details": "compared to the LS group (p<0.05)"}, "[12]": {"details": "compared to the LS group (p<0.01, Student's t-test)"}, "[13]": {"details": "HLB11S 1000 μg/mL, weight ratio, FIG. 5B"}, "[14]": {"details": "HLB16P 250 μg/mL, weight ratio, FIG. 5A"}, "[15]": {"details": "HLB16S 500 μg/mL, weight ratio, FIG. 5C"}}, "data": [{"smiles": "OC[C@H]1O[C@@H](O[C@H]2[C@H](O)[C@@H](O)[C@@H](O[C@]3(CO)O[C@H](CO)[C@@H](O)[C@@H]3O)O[C@@H]2CO)[C@H](O)[C@@H](O)[C@H]1O", "note": "[LS, Lactosucrose, reference compound]", "values": [{"measurement": "IgA amount of cecal contents", "setting": "[1]", "result": "increased significantly"}]}, {"smiles": "CCCCCCCCCCCC(=O)OCC(O)CO", "note": "(stereo not shown) [monolaurin, Monolaurin]", "values": [{"measurement": "concentration at which cytotoxicity to the Caco-2 cells was observed", "setting": "[2]", "result": "≥ 156.25", "unit": "µg/mL"}, {"measurement": "concentration at which cytotoxicity to the Caco-2 cells was very high", "setting": "[2]", "result": "≥ 625", "unit": "µg/mL"}]}, {"smiles": "OC[C@H]1O[C@@H]2O[C@H]3[C@H](O)[C@@H](O)[C@@H](O[C@H]4[C@H](O)[C@@H](O)[C@@H](O[C@H]5[C@H](O)[C@@H](O)[C@@H](O[C@H]6[C@H](O)[C@@H](O)[C@@H](O[C@H]7[C@H](O)[C@@H](O)[C@@H](O[C@H]1[C@H](O)[C@H]2O)O[C@@H]7CO)O[C@@H]6CO)O[C@@H]5CO)O[C@@H]4CO)O[C@@H]3CO", "note": "[α-CD]", "values": [{"measurement": "feces amount, dry weight", "setting": "[3]; [11]", "result": "increased significantly"}, {"measurement": "feces amount, wet weight", "setting": "[3]; [11]", "result": "increased significantly"}, {"measurement": "feces amount, wet weight", "setting": "[3]; compared to the NF group (p<0.01), FIG. 4A", "result": "increased significantly"}, {"measurement": "feces amount, dry weight", "setting": "[3]; compared to the NF group (p<0.01), FIG. 4B", "result": "increased significantly"}, {"measurement": "suppression of the decrease in transepithelial electrical resistance value by the SE", "setting": "[4]", "result": "suppressed by the addition of α-CD in a concentration-dependent manner"}, {"measurement": "increase in amount of acetic acid", "setting": "[5]; compared to the LS group", "result": "remarkable"}, {"measurement": "increase in amount of lactic acid", "setting": "[5]; compared to the LS group", "result": "remarkable"}, {"measurement": "increase in amount of n-butyric acid", "setting": "[5]; compared to the LS group", "result": "remarkable"}, {"measurement": "increase in amount of propionic acid", "setting": "[5]; compared to the LS group", "result": "remarkable"}, {"measurement": "increase in amount of succinic acid", "setting": "[5]; compared to the LS group", "result": "remarkable"}, {"measurement": "increase in total SCFAs amount", "setting": "[5]; compared to the LS group", "result": "remarkable"}, {"measurement": "amount of acetic acid in cecal contents", "setting": "[5]; compared to the NF group", "result": "increased significantly"}, {"measurement": "amount of lactic acid in cecal contents", "setting": "[5]; compared to the NF group", "result": "increased significantly"}, {"measurement": "amount of n-butyric acid in cecal contents", "setting": "[5]; compared to the NF group", "result": "increased significantly"}, {"measurement": "amount of propionic acid in cecal contents", "setting": "[5]; compared to the NF group", "result": "increased significantly"}, {"measurement": "amount of succinic acid in cecal contents", "setting": "[5]; compared to the NF group", "result": "increased significantly"}, {"measurement": "total SCFAs amount in cecal contents", "setting": "[5]; compared to the NF group", "result": "increased significantly"}, {"measurement": "production of the putrefactive products", "setting": "[6]; [12]", "result": "suppressed significantly"}, {"measurement": "amounts of the putrefactive products (indole, p-cresol and phenol) in cecal contents", "setting": "[6]; compared to the NF group (p<0.01), FIG. 3", "result": "decreased significantly"}, {"measurement": "proportion of the Lactobacillales in cecal microflora", "setting": "[7]", "result": "increased"}, {"measurement": "suppression of the cytotoxicity of the food emulsifier", "setting": "[8]; 1000 μg/mL HLB11S and 1000 μg/mL test substance, LDH activity, FIG. 6", "result": "exhibits such an effect"}, {"measurement": "amount of α-CD with which cytotoxicity of HLB11S disappeared completely", "setting": "[8]; [13]", "result": 10, "unit": "times the amount"}, {"measurement": "amount of α-CD with which cytotoxicity of HLB11S was reduced significantly", "setting": "[8]; [13]", "result": "≥ 0.1", "unit": "times the amount"}, {"measurement": "amount of α-CD with which cytotoxicity of HLB16P disappeared completely", "setting": "[8]; [14]", "result": 10, "unit": "times the amount"}, {"measurement": "amount of α-CD with which cytotoxicity of HLB16P was reduced significantly", "setting": "[8]; [14]", "result": "≥ 1.5", "unit": "times the amount"}, {"measurement": "amount of α-CD with which cytotoxicity of HLB16S disappeared completely", "setting": "[8]; [15]", "result": 5, "unit": "times the amount"}, {"measurement": "amount of α-CD with which cytotoxicity of HLB16S was reduced significantly", "setting": "[8]; [15]", "result": "≥ 1.5", "unit": "times the amount"}, {"measurement": "amount of α-CD with which cytotoxicity of monolaurin disappeared completely", "setting": "[8]; monolaurin 500 μg/mL, weight ratio, FIG. 5D", "result": "≥ 10", "unit": "times the amount"}, {"measurement": "mucin amount of cecal contents", "setting": "[9]; [12]", "result": "increased significantly"}, {"measurement": "mucin amount of cecal contents", "setting": "[9]; compared to the NF group (p<0.01)", "result": "increased significantly"}, {"measurement": "decrease in the cecal pH", "setting": "[10]; compared to the LS group", "result": "remarkable"}, {"measurement": "cecal pH", "setting": "[10]; compared to the NF group", "result": "decreased significantly"}, {"measurement": "IgA amount of cecal contents", "setting": "[1]", "result": "increased significantly"}, {"measurement": "IgA-increasing effect", "setting": "[1]; α-CD group vs LS group, Student's t-test", "result": "comparable to that of LS"}]}]}
